Data as given in ChEMBL document CHEMBL1201862, “PubChem BioAssay data set” (2004).
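96-well plates; 48 h exposure; 5 concentrations. Endpoints by linear interpolation between flanking doses. Not reached: highest tested concentration assigned. Here, GI50 denotes the concentration required for 50% inhibition of growth.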 The source made the active and inactive calls. Rule as the data show it: active = GI50 up to about 1.1 µM and inactive = higher.

How the values were obtained:
Test in all cases: inhibition of tumour cell growth, NCI panel, 48 h
[1] = tested on: IGROV-1
[2] = tested on: NCI-H460
[3] = tested on: RXF 393
[4] = tested on: OVCAR-5
[5] = tested on: LOX IMVI
[6] = tested on: EKVX
[7] = tested on: MDA-MB-435
[8] = tested on: Malme-3M
[9] = tested on: SW-620
[10] = tested on: M14
[11] = tested on: HCT-15
[12] = tested on: U-251
[13] = tested on: NCI-H522
[14] = tested on: K562
[15] = tested on: CCRF-CEM
[16] = tested on: PC-3
[17] = tested on: MCF7
[18] = tested on: UO-31
[19] = tested on: CAKI-1
[20] = tested on: MDA-N

| SMILES | GI50 [1] | GI50 [2] | GI50 [3] | GI50 [4] | GI50 [5] | GI50 [6] | GI50 [7] | GI50 [8] | GI50 [9] | GI50 [10] | GI50 [11] [µM] | GI50 [12] | GI50 [13] | GI50 [14] | GI50 [15] | GI50 [16] | GI50 [17] | GI50 [18] | GI50 [19] | GI50 [20] |
| --- | --- | --- | --- | --- | --- | --- | --- | --- | --- | --- | --- | --- | --- | --- | --- | --- | --- | --- | --- | --- |
| Cc1ccc(NC(=O)COc2ccc(Cl)cc2)cc1Cl | 36.5 µM (inactive) | > 100 µM (inactive) | 24.7 µM (inactive) | 68.1 µM (inactive) | 82 µM (inactive) | 46.3 µM (inactive) | > 100 µM (inactive) | 30.5 µM (inactive) | > 100 µM (inactive) | 47.1 µM (inactive) | > 100 | 27.4 µM (inactive) | 75.7 µM (inactive) | > 100 µM (inactive) | 0.278 µM (active) | > 100 µM (inactive) | > 100 µM (inactive) | 30.3 µM (inactive) | 18.7 µM (inactive) | – |
| Cc1cccc(NC(=O)c2cc3cc(/N=N/c4ccccc4Cl)ccc3oc2=O)c1 | 32.1 µM (inactive) | 27 µM (inactive) | 33.1 µM (inactive) | 23.4 µM (inactive) | 10.4 µM (inactive) | 53.1 µM (inactive) | – | 45.4 µM (inactive) | 54.1 µM (inactive) | 26.8 µM (inactive) | 27.4 | 26.5 µM (inactive) | 22.3 µM (inactive) | 61 µM (inactive) | 14 µM (inactive) | – | – | 13.3 µM (inactive) | 41.1 µM (inactive) | – |
| Cc1cc(C)n(-c2c(O)ccc(O)c2-n2nc(C)cc2C)n1 | > 100 µM (inactive) | > 100 µM (inactive) | > 100 µM (inactive) | > 100 µM (inactive) | > 100 µM (inactive) | > 100 µM (inactive) | – | > 100 µM (inactive) | > 100 µM (inactive) | > 100 µM (inactive) | > 100 | > 100 µM (inactive) | > 100 µM (inactive) | > 100 µM (inactive) | > 100 µM (inactive) | – | – | > 100 µM (inactive) | > 100 µM (inactive) | – |
| CC(C)(C)c1cc(-c2cc(C(C)(C)C)n(-c3ccccc3)n2)nn1-c1ccccc1 | > 100 µM (inactive) | 61.5 µM (inactive) | > 100 µM (inactive) | > 100 µM (inactive) | 6.43 µM (inactive) | > 100 µM (inactive) | 49.8 µM (inactive) | – | 8.57 µM (inactive) | > 100 µM (inactive) | > 100 | > 100 µM (inactive) | > 100 µM (inactive) | 3.27 µM (inactive) | > 100 µM (inactive) | 65.6 µM (inactive) | > 100 µM (inactive) | 30.4 µM (inactive) | > 100 µM (inactive) | – |
| Nn1c(S)nnc1-c1ccccc1Nc1ccccc1-c1nnc(S)n1N | > 50 µM (inactive) | > 50 µM (inactive) | > 50 µM (inactive) | > 50 µM (inactive) | > 50 µM (inactive) | > 50 µM (inactive) | > 50 µM (inactive) | > 50 µM (inactive) | > 50 µM (inactive) | > 50 µM (inactive) | > 50 | > 50 µM (inactive) | > 50 µM (inactive) | > 50 µM (inactive) | > 50 µM (inactive) | > 50 µM (inactive) | > 50 µM (inactive) | > 50 µM (inactive) | – | – |
| N#Cc1c(-c2ccc(Cl)cc2)[nH]c(=O)n(C2OC(CO)C(O)C(O)C2O)c1=O (stereo unspecified) | 22.6 µM (inactive) | > 100 µM (inactive) | > 100 µM (inactive) | > 100 µM (inactive) | – | 54.6 µM (inactive) | > 100 µM (inactive) | – | > 100 µM (inactive) | > 100 µM (inactive) | > 100 | > 100 µM (inactive) | > 100 µM (inactive) | > 100 µM (inactive) | > 100 µM (inactive) | > 100 µM (inactive) | > 100 µM (inactive) | > 100 µM (inactive) | > 100 µM (inactive) | – |
| CC1(C)OC(=O)C(C)(C)C(=O)O1 | > 100 µM (inactive) | > 100 µM (inactive) | – | > 100 µM (inactive) | > 100 µM (inactive) | > 100 µM (inactive) | – | > 100 µM (inactive) | > 100 µM (inactive) | > 100 µM (inactive) | > 100 | > 100 µM (inactive) | > 100 µM (inactive) | > 100 µM (inactive) | > 100 µM (inactive) | > 100 µM (inactive) | > 100 µM (inactive) | > 100 µM (inactive) | > 100 µM (inactive) | > 100 µM (inactive) |
| C=C1C(=O)OC2CC(C)C3(O)CCC(=O)C3(C)CC12 (stereo unspecified) | 23.8 µM (inactive) | – | 21.8 µM (inactive) | 23.6 µM (inactive) | 31.8 µM (inactive) | 27.2 µM (inactive) | 39.7 µM (inactive) | 19.5 µM (inactive) | 42.1 µM (inactive) | 22 µM (inactive) | 14.9 | 38.1 µM (inactive) | 14.3 µM (inactive) | – | 33.8 µM (inactive) | 49 µM (inactive) | 29.2 µM (inactive) | 28.2 µM (inactive) | 17.5 µM (inactive) | – |
| N#C/C(=C\c1ccccc1Br)C(=O)c1ccccc1 | > 10 µM (inactive) | > 92.9 µM (inactive) | 32.9 µM (inactive) | > 61.7 µM (inactive) | 11.8 µM (inactive) | > 100 µM (inactive) | – | > 53.1 µM (inactive) | 2.04 µM (inactive) | > 34.8 µM (inactive) | 8.34 | > 48.3 µM (inactive) | 58.2 µM (inactive) | 0.55 µM (active) | 6.95 µM (inactive) | – | – | > 38.5 µM (inactive) | > 71.8 µM (inactive) | – |
| C[C@H]1CN[C@@H]2[C@@H](C)[C@H]3[C@@H](C[C@H]4[C@@H]5CC[C@H]6C[C@@H](N)CC[C@]6(C)[C@H]5CC[C@]34C)O[C@@]2(O)C1 | 2.15 µM (inactive) | 2.32 µM (inactive) | – | 5.47 µM (inactive) | 1.73 µM (inactive) | 3.34 µM (inactive) | 1.6 µM (inactive) | 1.64 µM (inactive) | 2.25 µM (inactive) | 2.04 µM (inactive) | 1.38 | 1.67 µM (inactive) | 2.24 µM (inactive) | 1.91 µM (inactive) | 0.561 µM (active) | 2.79 µM (inactive) | 4.18 µM (inactive) | 2.25 µM (inactive) | 2.37 µM (inactive) | – |
| CC(=O)/N=C1\NC(=O)/C(=C/c2ccc(/C=C3/C(=O)N/C(=N\C(C)=O)N3C)cc2)N1C | > 100 µM (inactive) | > 100 µM (inactive) | > 100 µM (inactive) | > 100 µM (inactive) | > 100 µM (inactive) | > 100 µM (inactive) | > 100 µM (inactive) | – | > 100 µM (inactive) | > 100 µM (inactive) | > 100 | > 100 µM (inactive) | – | – | – | – | > 100 µM (inactive) | > 100 µM (inactive) | > 100 µM (inactive) | > 100 µM (inactive) |
| CCc1n[nH]c(=O)n1-c1ccc2ccccc2c1 | > 100 µM (inactive) | > 100 µM (inactive) | > 100 µM (inactive) | > 100 µM (inactive) | > 100 µM (inactive) | > 100 µM (inactive) | > 100 µM (inactive) | > 100 µM (inactive) | > 100 µM (inactive) | > 100 µM (inactive) | > 100 | > 100 µM (inactive) | > 100 µM (inactive) | > 100 µM (inactive) | > 100 µM (inactive) | – | > 100 µM (inactive) | > 100 µM (inactive) | > 100 µM (inactive) | > 100 µM (inactive) |
| CCCOc1ccc(/C(Cl)=C(\C=O)c2ccc(OC)c(OC)c2)cc1OCCC | 27.9 µM (inactive) | 7.1 µM (inactive) | 3.28 µM (inactive) | 39.3 µM (inactive) | 10.5 µM (inactive) | 10.9 µM (inactive) | – | 0.804 µM (active) | 5.13 µM (inactive) | 12.7 µM (inactive) | 5.47 | 5.73 µM (inactive) | 2 µM (inactive) | 6.1 µM (inactive) | 3.59 µM (inactive) | – | – | 17.6 µM (inactive) | 75.3 µM (inactive) | – |
| CC(C)(OCc1ccccc1)c1ccccc1P(c1ccccc1)c1ccccc1 | 50.1 µM (inactive) | 49.7 µM (inactive) | > 100 µM (inactive) | > 100 µM (inactive) | – | 32.9 µM (inactive) | 37.9 µM (inactive) | 26.2 µM (inactive) | 82.2 µM (inactive) | 43.6 µM (inactive) | 36.4 | 27.9 µM (inactive) | 42.8 µM (inactive) | 45.3 µM (inactive) | – | 33.3 µM (inactive) | 40.4 µM (inactive) | 87.7 µM (inactive) | 31.7 µM (inactive) | – |
| CC1=CCC(C)=Nc2nc3ccccc3n21 | > 100 µM (inactive) | > 100 µM (inactive) | > 100 µM (inactive) | > 100 µM (inactive) | > 100 µM (inactive) | > 100 µM (inactive) | > 100 µM (inactive) | > 100 µM (inactive) | > 100 µM (inactive) | > 100 µM (inactive) | > 100 | > 100 µM (inactive) | > 100 µM (inactive) | > 100 µM (inactive) | > 100 µM (inactive) | > 100 µM (inactive) | > 100 µM (inactive) | 23.2 µM (inactive) | > 100 µM (inactive) | – |
| COc1cc(O)cc(/C=C/c2ccc(O)cc2)c1 | 53.3 µM (inactive) | 44.7 µM (inactive) | 72.8 µM (inactive) | > 100 µM (inactive) | – | 28.4 µM (inactive) | 31.3 µM (inactive) | 32.6 µM (inactive) | 48.8 µM (inactive) | 24.3 µM (inactive) | 10.1 | 22.4 µM (inactive) | 30.1 µM (inactive) | 28.2 µM (inactive) | – | 18 µM (inactive) | 49.2 µM (inactive) | 39.1 µM (inactive) | 33.7 µM (inactive) | – |
